Test results: paper PMC7926793, “Synthesis and Biological Evaluation of 1-(Diarylmethyl)-1H-1,2,4-triazoles and 1-(Diarylmethyl)-1H-imidazoles as a Novel Class of Anti-Mitotic Agent for Activity in Breast Cancer” (Pharmaceuticals, 2021)
Like-named read-outs stand apart in the source and are kept apart here.

Key:
RXF 393 = experiment: NCI 60 cell line screen (Renal Cancer); type: cell-based, human; settings: for Growth percentage: RXF 393, single dose 10 µM
MDA-MB-231/ATCC = experiment: NCI 60 cell line screen (Breast Cancer); type: cell-based, human; settings: for GI50: Homo sapiens, NCI 5 dose assay; for Growth percentage: single dose 10 µM
HT29 = experiment: NCI 60 cell line screen (Colon Cancer); type: cell-based, human; settings: for Growth percentage: HT29, single dose 10 µM; for GI50: Homo sapiens, HT-29, HT29, NCI 5 dose assay
NCI-H552 = experiment: NCI 60 cell line screen (Non-Small Cell Lung Cancer); type: cell-based, human; settings: for GI50: Homo sapiens, 60 cell, NCI-H552, NCI 5 dose assay; for Growth percentage: NCI-H552, single dose 10 µM
COLO 205 = experiment: NCI 60 cell line screen (Colon Cancer); type: cell-based, human; settings: for Growth percentage: COLO 205, single dose 10 µM; for GI50: Homo sapiens, COLO 205, NCI 5 dose assay
HCT-116 = experiment: NCI 60 cell line screen (Colon Cancer); type: cell-based, human; settings: for Growth percentage: HCT-116, single dose 10 µM; for GI50: Homo sapiens, HCT-116, NCI 5 dose assay
SNB-75 = experiment: NCI 60 cell line screen (CNS Cancer); type: cell-based, human; settings: for Growth percentage: SNB-75, single dose 10 µM
[1] = test system: MDA-MB-231 human breast cancer cells; experiment: alamarBlue cell viability assay; type: cell-based; settings: read-out: Antiproliferative Activity MDA-MB-231 Cells IC50
[2] = test system: MCF-7 human breast cancer cells; experiment: alamarBlue cell viability assay; type: cell-based; settings: 72 h; for viability at 1 µM: MCF7, read-out: cell viability (viable cells); for IC50: alamarBlue, read-out: Antiproliferative Activity MCF-7 Cells IC50
A549/ATCC = experiment: NCI 60 cell line screen (Non-Small Cell Lung Cancer); type: cell-based, human; settings: for GI50: Homo sapiens, NCI 5 dose assay; for Growth percentage: single dose 10 µM
PC-3 = experiment: NCI 60 cell line screen (Prostate cancer); type: cell-based, human; settings: for GI50: Homo sapiens, PC-3, NCI 5 dose assay; for Growth percentage: PC-3, single dose 10 µM
[3] = toxicity evaluation, alamarBlue assay; type: cell-based, human; settings: human, MCF-10A cells; for viability at 24 h, 1 µM: read-out: cell viability; for viability at 48 h, 1 µM / viability at 72 h, 1 µM / viability at 48 h, 10 µM: read-out: percentage of viable cells
IGROV1 = experiment: NCI 60 cell line screen (Ovarian Cancer); type: cell-based, human; settings: for GI50: Homo sapiens, IGROV-1, IGROV1, NCI 5 dose assay; for Growth percentage: IGROV1, single dose 10 µM
HCT-15 = experiment: NCI 60 cell line screen (Colon Cancer); type: cell-based, human; settings: for Growth percentage: HCT-15, single dose 10 µM; for GI50: Homo sapiens, HCT-15, NCI 5 dose assay
SF295 = experiment: NCI 60 cell line screen (CNS Cancer); type: cell-based, human; settings: for GI50: Homo sapiens, SF-295, SF295, NCI 5 dose assay; for Growth percentage: SF295, single dose 10 µM
SK-OV-3 = experiment: NCI 60 cell line screen (Ovarian Cancer); type: cell-based, human; settings: for GI50: Homo sapiens, SK-OV-3, NCI 5 dose assay; for Growth percentage: SK-OV-3, single dose 10 µM
ACHN = experiment: NCI 60 cell line screen (Renal Cancer); type: cell-based, human; settings: for GI50: Homo sapiens, NCI 5 dose assay; for Growth percentage: single dose 10 µM
NCI-H226 = experiment: NCI 60 cell line screen (Non-Small Cell Lung Cancer); type: cell-based, human; settings: for GI50: Homo sapiens, NCI-H226, NCI 5 dose assay; for Growth percentage: NCI-H226, single dose 10 µM
T-47D = experiment: NCI 60 cell line screen (Breast Cancer); type: cell-based, human; settings: single dose 10 µM
SF-268 = experiment: NCI 60 cell line screen (CNS Cancer); type: cell-based, human; settings: for GI50: Homo sapiens, SF-268, NCI 5 dose assay; for Growth percentage: SF-268, single dose 10 µM
OVCAR-3 = experiment: NCI 60 cell line screen (Ovarian Cancer); type: cell-based, human; settings: for GI50: Homo sapiens, OVCAR-3, NCI 5 dose assay; for Growth percentage: OVCAR-3, single dose 10 µM
HOP-92 = experiment: NCI 60 cell line screen (Non-Small Cell Lung Cancer); type: cell-based, human; settings: for Growth percentage: HOP-92, single dose 10 µM; for GI50: Homo sapiens, HOP-92, NCI 5 dose assay
NCI 60 cell line panel = experiment: NCI 60 cell line screen, panel means; type: cell-based, human; settings: for Mean Growth percentage: 60 cell line panel, single dose 10 µM; for GI50 / LC50 (50% lethal concentration): Homo sapiens
SR = experiment: NCI 60 cell line screen (Leukemia); type: cell-based, human
[4] = 60 cell, NCI 5 dose assay, 60 cell lines, read-out: MG-MID (mean of GI50 values over all cell lines)

COc1ccc(C(c2cc(OC)c(OC)c(OC)c2)n2cncn2)cc1O (stereo not shown) [19e, 5-((1H-1,2,4-Triazol-1-yl)(3,4,5-Trimethoxyphenyl)methyl)-2-Methoxyphenol]
GI50 (RXF 393; Homo sapiens, RXF 393, NCI 5 dose assay): 321 nM | Growth percentage (RXF 393): -13.85% | GI50 (MDA-MB-231/ATCC): 1500 nM | Growth percentage (MDA-MB-231/ATCC): 43.15% | Growth percentage (HT29): 5.30% | GI50 (HT29): 330 nM | GI50 (NCI-H552): 395 nM | Growth percentage (NCI-H552): 12.78% | Growth percentage (COLO 205): -1.65% | GI50 (COLO 205): 332 nM | Growth percentage (HCT-116): 7.25% | GI50 (HCT-116): 448 nM | Growth percentage (SNB-75): 48.64% | IC50 ([1]; 72 h): 978 ± 130 nM | IC50 ([1]; Homo sapiens, MDA-MB-231, 72 h): 980 nM | viability at 1 µM ([2]; Homo sapiens): 29% | GI50 (A549/ATCC): 969 nM | Growth percentage (A549/ATCC): 18.6% | GI50 (PC-3): 431 nM | Growth percentage (PC-3): 21.20% | viability at 48 h, 0.4 µM [3]: ~100% | viability at 48 h, 0.5 µM [3]: ~100% | viability at 24 h, 1 µM [3]: 99% | viability at 48 h, 1 µM [3]: > 94% | viability at 72 h, 1 µM [3]: > 80% | viability at 48 h, 10 µM [3]: ~30% | GI50 (IGROV1): 959 nM | Growth percentage (IGROV1): 49.22% | Growth percentage (HCT-15): 10.04% | GI50 (HCT-15): 438 nM | GI50 (SF295): 325 nM | Growth percentage (SF295): 2.56% | GI50 (SK-OV-3): 402 nM | Growth percentage (SK-OV-3): 20.25% | GI50 (ACHN): 653 nM | Growth percentage (ACHN): 52.36% | GI50 (NCI-H226): 1430 nM | Growth percentage (NCI-H226): 73.39% | Growth percentage (T-47D): 34.98% | GI50 (SF-268): 469 nM | Growth percentage (SF-268): 48.75% | GI50 (OVCAR-3): 323 nM | Growth percentage (OVCAR-3): 1.74% | Growth percentage (HOP-92): 43.92% | GI50 (HOP-92): 9690 nM | Mean Growth percentage (NCI 60 cell line panel): 26.24% | MID TGI (total growth inhibition) (NCI 60 cell line panel; 60 cell lines): 53700 nM | GI50 (NCI 60 cell line panel; [4]): 243 nM

COc1ccc(C(c2cc(OC)c(OC)c(OC)c2)n2ccnc2)cc1O (stereo not shown) [21l, 5-((1H-Imidazol-1-yl)(3,4,5-Trimethoxyphenyl)Methyl)-2-Methoxyphenol]
Growth percentage (RXF 393): -5.38% | GI50 (MDA-MB-231/ATCC): 664 nM | Growth percentage (MDA-MB-231/ATCC): 34.75% | Growth percentage (HT29): 5.94% | GI50 (HT29): 312 nM | GI50 (NCI-H552): 247 nM | Growth percentage (NCI-H552): 12.12% | Growth percentage (COLO 205): -9.99% | GI50 (COLO 205): 361 nM | Growth percentage (HCT-116): 6.88% | GI50 (HCT-116): 249 nM | GI50 (SNB-75; Homo sapiens, SNB-75, NCI 5 dose assay): 192 nM | Growth percentage (SNB-75): 56.72% | IC50 ([1]; Homo sapiens, MDA-MB-231, 72 h): 237 ± 40 nM | IC50 [2]: 132 ± 7 nM | IC50 ([2]; Homo sapiens, MCF7, 72 h): 130 nM | viability at 1 µM ([2]; Homo sapiens): 31% | GI50 (A549/ATCC): 836 nM | Growth percentage (A549/ATCC): 12.80% | GI50 (PC-3): 384 nM | Growth percentage (PC-3): 20.69% | GI50 (SR; Homo sapiens, NCI 5 dose assay): 182 nM | Growth percentage (SR; single dose 10 µM): 8.48% | viability at 48 h, 0.4 µM [3]: ~100% | viability at 48 h, 0.5 µM [3]: ~100% | viability at 24 h, 1 µM [3]: 73% | viability at 48 h, 1 µM [3]: 64% | viability at 72 h, 1 µM [3]: > 80% | viability at 48 h, 10 µM [3]: ~30% | GI50 (IGROV1): 862 nM | Growth percentage (IGROV1): 36.42% | Growth percentage (HCT-15): 7.70% | GI50 (HCT-15): 264 nM | GI50 (SF295): 307 nM | Growth percentage (SF295): -3.02% | GI50 (SK-OV-3): 465 nM | Growth percentage (SK-OV-3): 21.78% | GI50 (ACHN): 693 nM | Growth percentage (ACHN): 42.41% | GI50 (NCI-H226): 640 nM | Growth percentage (NCI-H226): 68.70% | Growth percentage (T-47D): 42.62% | GI50 (SF-268): 731 nM | Growth percentage (SF-268): 39.64% | GI50 (OVCAR-3): 264 nM | Growth percentage (OVCAR-3): -9.52% | Growth percentage (HOP-92): 25.77% | GI50 (HOP-92): 28600 nM | Mean Growth percentage (NCI 60 cell line panel): 23.38% | MID TGI (total growth inhibition) (NCI 60 cell line panel; 60 cell lines): 40700 nM | GI50 (NCI 60 cell line panel; 60 cell, CNS cancer cell lines, read-out: GI50 range): 192 to 731 nM | GI50 (NCI 60 cell line panel; [4]): 234 nM | GI50 (NCI 60 cell line panel; 60 cell, breast cancer panel, read-out: GI50 range): 306 to 664 nM | LC50 (50% lethal concentration) (NCI 60 cell line panel; 60 cell, COMPARE analysis text, read-out: LC50 values (all)): > 100000 nM | LC50 (50% lethal concentration) (NCI 60 cell line panel; 60 cell lines, read-out: MID LC50): > 100000 nM
